Broadly, the Kd is the free concentration of one partner at which half of the binding sites on the other are occupied at equilibrium, for simple one-to-one binding.

The assay concerns the target T1, P. falciparum diadenosine tetraphosphate (Ap4A) hydrolase (PfAp4AH) (Plasmodium falciparum, UniProt C0H4F3).
T1 construct: gene PF3D7_0520600; Full length PfAp4AH, recombinant from E. coli, His-tag removed
T1 sequence (C0H4F3 1-152): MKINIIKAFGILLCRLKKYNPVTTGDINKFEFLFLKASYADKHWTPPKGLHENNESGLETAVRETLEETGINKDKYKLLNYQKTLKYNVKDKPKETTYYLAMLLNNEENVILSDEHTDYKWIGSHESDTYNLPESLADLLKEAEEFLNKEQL
The assay is described as follows: ITC at […] °C (n = […]); also enzyme inhibition IC50 […] and thermal shift (negative ΔTm). In kind it is binding.

On to `Cc1ccc(C(=O)Nc2ccc(S(=O)(=O)O)c3cc(S(=O)(=O)O)cc(S(=O)(=O)O)c23)cc1NC(=O)c1cccc(NC(=O)Nc2cccc(C(=O)Nc3cc(C(=O)Nc4ccc(S(=O)(=O)O)c5cc(S(=O)(=O)O)cc(S(=O)(=O)O)c45)ccc3C)c2)c1` [suramin], for which the Kd was 18.1 ± 1.1 µM.
